pIC50: −log10 of the molar value.
Target: T1, PI3K alpha (Homo sapiens, UniProt P42336)
T1 construct: purchased Millipore Upstate
Assay: P110 Alpha TR-FRET Assay (PI3K alpha kinase assay, HTRF Transcreener ADP Assay)
Format: biochemical
Conditions: PI3K (WT)
Protocol: PI3K alpha kinase assay may be done using HTRF Transcreener ADP Assay (Cisbio).
Composition of the reaction buffer was as follows 50 mM HEPES, pH 7.5, 5 mM MgCl2, 1 mM DTT, 30 μM Na3VO4. PI3 Kinase was procured from Millipore Upstate. […] ATP was used at final concentration of 10 μM. Corning 384 well white plates were used for the assay.
2 μl of diluted enzyme (50 ng), 3 μl of diluted compound and 5 μl of buffer were added, mixed then incubated for 20 minutes with shaking at 400 rpm. 3 μl of substrate (10 μM of ATP and 5 μM PIP2) were added to initiate the reaction. The samples were incubated for 20 min. At the end of the reaction time 10 μl of the Detection mix (5 μl of ADP-D2 and 5 μl of Anti-ADP-Cryptate) was added and the contents were incubated for 1 h. The reaction plate was directly read in an Envision Multilabel Plate Reader.

T1 sequence (P42336 whole entry): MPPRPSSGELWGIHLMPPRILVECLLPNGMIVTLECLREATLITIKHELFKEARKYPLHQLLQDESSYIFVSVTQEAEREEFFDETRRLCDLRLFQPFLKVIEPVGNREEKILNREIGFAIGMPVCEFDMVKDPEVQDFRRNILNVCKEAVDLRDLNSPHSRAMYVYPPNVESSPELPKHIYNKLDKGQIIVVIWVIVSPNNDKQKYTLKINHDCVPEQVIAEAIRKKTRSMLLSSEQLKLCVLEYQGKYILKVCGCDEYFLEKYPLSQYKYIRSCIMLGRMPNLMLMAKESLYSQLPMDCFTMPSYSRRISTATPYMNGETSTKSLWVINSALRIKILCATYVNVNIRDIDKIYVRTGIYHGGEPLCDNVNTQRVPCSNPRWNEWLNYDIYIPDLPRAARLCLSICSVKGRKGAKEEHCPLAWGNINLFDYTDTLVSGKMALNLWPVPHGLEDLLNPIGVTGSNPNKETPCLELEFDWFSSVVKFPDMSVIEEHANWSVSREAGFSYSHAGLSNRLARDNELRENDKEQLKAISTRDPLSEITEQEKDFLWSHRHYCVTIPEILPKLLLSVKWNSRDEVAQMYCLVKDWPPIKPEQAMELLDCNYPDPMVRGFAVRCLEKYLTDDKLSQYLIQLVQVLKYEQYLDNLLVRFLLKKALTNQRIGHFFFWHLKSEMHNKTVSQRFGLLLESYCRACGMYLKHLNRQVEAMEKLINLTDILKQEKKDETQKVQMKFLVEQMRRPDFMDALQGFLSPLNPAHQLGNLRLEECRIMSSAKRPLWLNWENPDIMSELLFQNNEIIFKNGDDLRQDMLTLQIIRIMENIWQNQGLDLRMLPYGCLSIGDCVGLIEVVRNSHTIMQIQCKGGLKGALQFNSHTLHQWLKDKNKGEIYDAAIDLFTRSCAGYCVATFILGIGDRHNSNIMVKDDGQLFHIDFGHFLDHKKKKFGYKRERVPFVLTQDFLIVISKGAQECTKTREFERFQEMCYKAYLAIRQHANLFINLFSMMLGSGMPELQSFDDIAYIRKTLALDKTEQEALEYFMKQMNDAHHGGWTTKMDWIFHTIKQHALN
T1 sequence (P27986 whole entry partner): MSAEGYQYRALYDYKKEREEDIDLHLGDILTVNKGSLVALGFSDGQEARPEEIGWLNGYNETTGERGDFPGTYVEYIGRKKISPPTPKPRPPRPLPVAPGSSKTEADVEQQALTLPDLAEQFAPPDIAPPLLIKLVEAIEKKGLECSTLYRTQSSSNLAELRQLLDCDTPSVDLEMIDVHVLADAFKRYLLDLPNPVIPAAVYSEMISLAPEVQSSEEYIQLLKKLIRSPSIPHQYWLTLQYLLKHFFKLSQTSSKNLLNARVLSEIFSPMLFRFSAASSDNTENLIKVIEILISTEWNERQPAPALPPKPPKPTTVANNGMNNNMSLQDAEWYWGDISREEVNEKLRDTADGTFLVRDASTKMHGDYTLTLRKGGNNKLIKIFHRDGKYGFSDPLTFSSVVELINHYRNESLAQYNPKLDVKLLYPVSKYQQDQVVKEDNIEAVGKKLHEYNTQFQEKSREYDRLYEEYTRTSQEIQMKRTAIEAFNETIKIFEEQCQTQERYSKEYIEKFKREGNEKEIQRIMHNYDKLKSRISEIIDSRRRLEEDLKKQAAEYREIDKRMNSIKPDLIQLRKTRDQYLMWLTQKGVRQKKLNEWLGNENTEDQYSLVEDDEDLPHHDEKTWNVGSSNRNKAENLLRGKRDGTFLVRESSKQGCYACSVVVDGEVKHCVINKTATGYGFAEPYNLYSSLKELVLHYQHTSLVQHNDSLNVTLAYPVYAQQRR

Row | Compound | pIC50
1 | 2-8-[4-1,6-5-bis(morpholin-4-yl)-1,3,5-triazin-2-yl]-2H-indazole [Compound 1112] | > 5.30
2 | CN(C)C(=O)c1ccc(Oc2nc(-c3cnc(N)s3)nc(N3CCCOCC3)n2)cc1 [Compound 1002, 4-9-{[4-1-(2-17-amino-1,3-thiazol-5-yl)-6-5-(1,4-oxazepan-4-yl)-1,3,5-triazin-2-yl]oxy}-N,N-dimethylbenzamide] | > 5.30
3 | Nc1ncc(-c2nc(Nc3nccs3)nc(N3CCOCC3)n2)s1 [Compound 1007, N-(4-(2-aminothiazol-5-yl)-6-morpholino-1,3,5-triazin-2-yl)thiazol-2-amine] | > 5.30
4 | Nc1ccc(-c2nc(Oc3ccc4c(c3)CCC(=O)N4)nc(N3CCOCC3)n2)cn1 [Compound 1010, 6-20-{[4-1-(6-11-ammopyridin-3-yl)-6-5-(morpholin-4-yl)-1,3,5-triazin-2-yl]oxy}-1,2,3,4-tetrahydroquinolin-2-one] | > 5.30
5 | CN(C)C(=O)c1ccc(Oc2nc(-c3cnc(N)nc3)nc(N3CCOCC3)n2)cc1 [Compound 1011, 4-14-{[4-1-(2-27-aminopyrimidin-5-yl)-6-5-(morpholin-4-yl)-1,3,5-triazin-2-yl]oxy}-N,N-dimethylbenzamide] | > 5.30
6 | CN(C)C(=O)c1ccc(Oc2nc(-c3ccc(N)nc3)nc(N3C4CCC3COC4)n2)cc1 [Compound 1012, 4-9-{[4-1-(6-12-aminopyridin-3-yl)-6-5-{3-oxa-8-azabicyclo[3.2.1]octan-8-yl}-1,3,5-triazin-2-yl]oxy}-N,N-dimethylbenzamide] | > 5.30

Results, then the compound that gave them:

Row | pIC50 | Compound
7 | > 5.30 | CN(C)C(=O)c1ccc(Oc2nc(-c3cnc(N)s3)nc(N3C4CCC3COC4)n2)cc1 [Compound 1001, 4-8-{[4-1-(2-11-amino-1,3-thiazol-5-yl)-6-5-{3-oxa-8-azabicyclo[3.2.1]octan-8-yl}-1,3,5-triazin-2-yl]oxy}-N,N-dimethylbenzamide]
8 | > 5.30 | C[C@H]1COCCN1c1nc(Oc2ccc(C(=O)N(C)C)cc2)nc(-c2cnc(N)s2)n1 [Compound 1003, 4-9-{[4-1-(2-22-amino-1,3-thiazol-5-yl)-6-5-(3-25-methylmorpholin-4-yl)-1,3,5-triazin-2-yl]oxy}-N,N-dimethylbenzamide]
9 | > 5.30 | CN(C)C(=O)c1ccc(Oc2nc(-c3cnc(N)s3)nc(N3CCOCC3)n2)cc1 [Compound 1004, 4-14-{[4-1-(2-27-amino-1,3-thiazol-5-yl)-6-5-(morpholin-4-yl)-1,3,5-triazin-2-yl]oxy}-N,N-dimethylbenzamide]
10 | > 5.30 | CS(=O)(=O)N1CCC(COc2nc(-c3cnc(N)nc3)nc(N3CCOCC3)n2)CC1 [Compound 1005, 5-(4-((1-(methylsulfonyl)piperidin-4-yl)methoxy)-6-morpholino-1,3,5-triazin-2-yl)pyrimidin-2-amine]
11 | > 5.30 | CN(C)C(=O)Cc1ccc(Oc2nc(-c3cnc(N)nc3)nc(N3CCOCC3)n2)cc1 [Compound 1006, 2-26-(4-20-{[4-3-(2-15-aminopyrimidin-5-yl)-6-5-(morpholin-4-yl)-1,3,5-triazin-2-yl]oxy}phenyl)-N,N-dimethylacetamide]
12 | > 5.30 | CN(C)C(=O)N1CCC(Oc2nc(-c3cnc(N)nc3)nc(N3CCOCC3)n2)CC1 [Compound 1008, 4-14-{[4-1-(2-17-aminopyrimidin-5-yl)-6-5-(morpholin-4-yl)-1,3,5-triazin-2-yl]oxy}-N,N-dimethylpiperidine-1-carboxamide]
13 | > 5.30 | CN(C)C(=O)c1ccc(Oc2nc(-c3cnc(N)cn3)nc(N3CCOCC3)n2)cc1 [Compound 1009, 4-14-{[4-1-(5-17-aminopyrazin-2-yl)-6-5-(morpholin-4-yl)-1,3,5-triazin-2-yl]oxy}-N,N-dimethylbenzamide]
14 | > 5.30 | CN(C)C(=O)Cc1cccc(Oc2nc(-c3ccc(N)nc3)nc(N3CCOCC3)n2)c1 [Compound 1013, 2-26-(3-20-{[4-1-(6-11-aminopyridin-3-yl)-6-5-(morpholin-4-yl)-1,3,5-triazin-2-yl]oxy}phenyl)-N,N-dimethylacetamide]
